Experimental data reported in publication PMC5381194, “On-chip in vitro cell-network pre-clinical cardiac toxicity using spatiotemporal human cardiomyocyte measurement on a chip” (Scientific Reports, 2014).
Where two headings read alike, the source gives them in different places.

Key:
[1] = test system: human embryonic stem cell-derived cardiomyocyte cluster (hES-CMC); conditions: for Arrest (%) / Fib-like (%): human, 10 min
hERG = hERG (Homo sapiens, UniProt Q12809); experiment: hERG assay: K+ current by patch clamp in hERG expressing CHO-K1 cells; conditions: pH 7.4
hERG, sequence (Q12809 whole entry): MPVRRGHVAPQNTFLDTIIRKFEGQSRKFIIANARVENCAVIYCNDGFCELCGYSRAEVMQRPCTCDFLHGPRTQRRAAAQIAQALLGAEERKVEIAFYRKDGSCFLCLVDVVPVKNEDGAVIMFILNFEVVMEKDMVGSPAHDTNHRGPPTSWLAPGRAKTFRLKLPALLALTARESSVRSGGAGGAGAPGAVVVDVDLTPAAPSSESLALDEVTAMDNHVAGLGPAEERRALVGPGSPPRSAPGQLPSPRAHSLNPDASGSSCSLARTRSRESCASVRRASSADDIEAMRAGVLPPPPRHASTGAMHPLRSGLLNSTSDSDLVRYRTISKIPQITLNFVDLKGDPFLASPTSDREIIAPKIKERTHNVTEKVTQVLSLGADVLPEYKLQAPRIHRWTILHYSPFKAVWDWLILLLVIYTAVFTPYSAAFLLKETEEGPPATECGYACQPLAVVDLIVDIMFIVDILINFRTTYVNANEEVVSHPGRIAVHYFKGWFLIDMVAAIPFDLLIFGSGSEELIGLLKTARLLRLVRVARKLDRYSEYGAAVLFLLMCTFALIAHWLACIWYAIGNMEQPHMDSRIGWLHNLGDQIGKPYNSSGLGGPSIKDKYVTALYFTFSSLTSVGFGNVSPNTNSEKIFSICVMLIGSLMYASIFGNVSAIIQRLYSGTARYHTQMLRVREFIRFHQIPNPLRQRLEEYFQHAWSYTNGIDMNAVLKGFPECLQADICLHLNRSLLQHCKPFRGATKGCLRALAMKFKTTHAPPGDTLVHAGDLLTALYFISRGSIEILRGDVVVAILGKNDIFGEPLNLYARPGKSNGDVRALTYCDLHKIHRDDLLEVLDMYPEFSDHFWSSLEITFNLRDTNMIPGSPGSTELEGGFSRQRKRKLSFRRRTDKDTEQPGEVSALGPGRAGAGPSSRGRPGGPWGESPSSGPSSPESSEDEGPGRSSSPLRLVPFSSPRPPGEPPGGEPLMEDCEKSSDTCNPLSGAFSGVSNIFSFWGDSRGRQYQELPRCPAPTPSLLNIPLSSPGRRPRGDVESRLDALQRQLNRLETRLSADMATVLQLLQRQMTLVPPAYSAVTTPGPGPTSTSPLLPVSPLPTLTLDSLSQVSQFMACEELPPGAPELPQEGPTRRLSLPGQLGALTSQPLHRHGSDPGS
Method: Supplementary Explanation of Methods [in online]
Measurement of potassium (K+) current by patch clamp in hERG expressing CHO-K1 cells A patch clamp glass electrode was filled with internal solution (KCl: 130 mM, MgCl2: 1 mM, EGTA: 5 mM, MgATP: 5 mM, HEPES: 10 mM, pH 7.20). The electrode was attached to a patch clamp headstage holder and the tip of the electrode was brought into contact with the cell membrane with a micromanipulator under the microscope. Slight negative pressure from suction was created inside the electrode and the patch clamp system AXOPATCH 200B (Axon Instruments) and Clampex 9.2 was used to obtain a measured membrane resistance value (R-memb) greater than 20 megohms. The resting membrane potential was set at -80 mV just to wait to obtain R-memb greater than 1 gigaohms. Then to make whole-cell clamp mode, a strong suction was applied to rupture the cell membrane under the electrode. Cell capacitance and series resistance were compensated. The stimulation protocol (holding potential: -80 mV, depolarization pulse: +50 mV, for 2 s, repolarization pulse: -40 mV, for 2 s, pulse frequency:
0.067 Hz) was applied and the corresponding current was recorded. After the current waveform became stable, the application solutions were added cumulatively from the lowest concentration.
The cells were exposed to each concentration for 5 minutes and washed with Tyrode solution […]
pH 7.40) to observe the recovery after the exposure to the highest concentration. All experiments (n=3) were carried out at room temperature. The cells were perfused with Tyrode solution at the rate of 2.5 ml/min through the experiment as the background flow. The test compound was added to the cells directly via a pipette set nearby the cells at the rate of 350-400 µl/min.
Percentage change from pre-application values in tail peak current (% inhibition) was calculated […]
application/average of the consecutive 4 currents just before the start of the first application (the lowest one)] × 100. The dose levels were selected to describe the dose response curve. The maximum concentration was set to at least approximately 30~100 times its effective therapeutic plasma concentration in consideration of the solubility. […]

[2] = parameters: method as in references and pharmaceutical attachments; conditions: clinical report; effective therapeutic plasma concentration; ref references and pharmaceutical attachments; cited from earlier work
[3] = clinical VT/TdP risk compiled from the literature; ref literature; cited from earlier work
[4] = test system: human embryonic stem cell-derived cardiomyocyte cluster (hES-CMC); experiment: On-chip MEA field potential recording of hCM clusters (temporal FPD and STVFPD); conditions: for Score (On-chip MEA system, VT/TdP risk): more than 1.9-fold of STVFPD is the border of high risk of VT/TdP; for FPD (ratio) / STVFPD (ratio): 10 μM (Ref. dose ca. 10^2 × CMAX), ratio against the control, mean ± S.E.
[5] = test system: guinea pig right ventricular papillary muscle; experiment: APD assay: action potential recording in guinea pig right ventricular papillary muscle; conditions: relative ratio against the control, mean
Method: After the current waveform
(n=3) were carried out at room temperature. The cells were perfused with Tyrode solution at the […]
lowest one)] × 100. […] The […]
plasma concentration in consideration of the solubility. […]
(§1) megohms, which was coupled to an Ag-AgCl bath electrode and connected to a microelectrode […]
(§2) amplifier (MEZ-8300, Nihon Koden). […]
(§3) computer system (WinCAPA1.6.6.Aui, Physio-Tech). The components of the action potential analyzed by the computer system are: resting membrane potential (RMP), action potential amplitude (APA), overshoot (OS), action potential duration at 30%, 50% and 90% of repolarization (APD30, APD50 and APD90, respectively) and maximum rate of rising phase (V max = dV/dt max). After an equilibration period for at least one hour, the test compound was added to the organ bath at increasing cumulative concentrations. The administration volume and rate was 20, 40, 140 µl/20 ml organ bath and 1 s/dose. Cardiac action potentials were recorded before and 30 minutes after the exposure of the test compound at each concentration.
(§4) Monophasic action potential duration (MAPD) measurements in isolated Langendorff-perfused female rabbit heart
(§5) Female NZW rabbit were anesthetized by an intravenous injection of thiopental (30 mg/kg) and heparin (500 U/kg). Then the heart was quickly removed and its aorta was cannulated, the bundle of His was sectioned, for perfusion of the coronary artery according to the Langendorff method with constant pressure (initial perfusion pressure: 60-70 mmHg). The heart was perfused at […]
KCl: 4.7 mM, CaCl2: 2.5 mM, MgSO4: 1.2 mM, KH2PO4: 1.2 mM, NaHCO3: 25 mM, glucose:
Two electrocardiogram (ECG) […]
electrodes were held lightly against the epicardium, the positive one on the left ventricle, the […]

[6] = test system: isolated Langendorff-perfused female rabbit heart; experiment: MAPD measurement in isolated Langendorff-perfused female rabbit heart; conditions: relative ratio against the control, mean
Excerpt: as §1, §2, §3
The dose levels were selected to describe the dose response curve.
as §4, §5

[7] = hCM clusters, 10 μM, ratio of lethally abnormal events

SMILES	Cmax [2]	VT/VF/TdP (Clinical report) [3]	Score (On-chip MEA system, VT/TdP risk) [4]	Arrest (%) ([1]; 10 µM)	Fib-like (%) ([1]; 10 µM)	other results
CC(C)NCC(O)c1ccc(NS(C)(=O)=O)cc1 (racemic) [DL-sotalol]	2500 nM					Score (On-chip MEA system, VT/TdP risk) [1]: High; Arrest (%) ([1]; 1000 µM): 5%; Fib-like (%) ([1]; 1000 µM): 0%; inhibition at 5 min, 30 µM (hERG; CHO-K1 cells expressing hERG): 19.2%
COc1ccc(CCN2CCC(Nc3nc4ccccc4n3Cc3ccc(F)cc3)CC2)cc1 [Astemizole]	2 nM	(+)	High			Arrest (%) ([1]; 0.1 µM): 0%; Fib-like (%) ([1]; 0.1 µM): 14%
CC(C)COCC(CN(Cc1ccccc1)c1ccccc1)N1CCCC1 (centres unmarked) [Bepridil]	300 nM	(+)	High	5%	5%	inhibition at 5 min, 0.3 µM (hERG; CHO-K1 cells expressing hERG): 61.9%; FPD (ratio) ([4]; hCM clusters): 1.21 ± 0.12 ratio; STVFPD (ratio) ([4]; hCM clusters): 4.74 ± 2.26 ratio; APD90 prolongation in papillary musole (ratio) ([5]; 10 μM): 1.02 ratio; MAPD90 prolongation in Langendorff hearts (ratio) ([6]; 10 μM): 1.12 ratio
COc1cc(N)c(Cl)cc1C(=O)NC1CCN(CCCOc2ccc(F)cc2)CC1OC (centres unmarked) [Cisapride]	180 nM	(+)	High	0%	4%	inhibition at 5 min, 1 µM (hERG; CHO-K1 cells expressing hERG): 90.6%; FPD (ratio) ([4]; hCM clusters): 1.37 ± 0.07 ratio; STVFPD (ratio) ([4]; hCM clusters): 3.82 ± 0.85 ratio; APD90 prolongation in papillary musole (ratio) ([5]; 1 μM): 1.14 ratio; MAPD90 prolongation in Langendorff hearts (ratio) ([6]; 1 μM): 1.37 ratio
CN(C)CCCC1(c2ccc(F)cc2)OCc2cc(C#N)ccc21 (centres unmarked) [Citalopram]	270 nM	(+)	High	12%	0%	inhibition at 10 µM (hERG): 83.5%; FPD (ratio) ([4]; hCM clusters): 0.86 ± 0.04 ratio; STVFPD (ratio) ([4]; hCM clusters): 2.75 ± 0.78 ratio; APD90 prolongation in papillary musole (ratio) ([5]; 10 μM): 0.95 ratio
COc1ccc([C@@H]2Sc3ccccc3N(CCN(C)C)C(=O)[C@@H]2OC(C)=O)cc1 [Diltiazem]	110 nM		Low			Arrest (%) ([1]; 1 µM): 50%; Fib-like (%) ([1]; 1 µM): 0%
CC(C)(C)c1ccc(C(=O)CCCN2CCC(OC(c3ccccc3)c3ccccc3)CC2)cc1 [Ebastine]	160 nM		Low			Arrest (%) ([1]; 1 µM): 0%; Fib-like (%) ([1]; 1 µM): 0%
NC(N)=Nc1nc(CSCCC(N)=NS(N)(=O)=O)cs1 [Famotidine]	190 nM		Low	0%	0%	
O=C(NCC1CCCCN1)c1cc(OCC(F)(F)F)ccc1OCC(F)(F)F (centres unmarked) [Flecainide]	430 nM		High			Arrest (%) ([1]; 100 µM): 13%; Fib-like (%) ([1]; 100 µM): 0%; inhibition at 5 min, 10 µM (hERG; CHO-K1 cells expressing hERG): 88.3%
C[C@H]1COc2c(N3CCN(C)CC3)c(F)cc3c(=O)c(C(=O)O)cn1c23 [Levofloxacin]	22000 nM		Low			Arrest (%) ([1]; 1000 µM): 40%; Fib-like (%) ([1]; 1000 µM): 4%; inhibition at 5 min, 300 µM (hERG; CHO-K1 cells expressing hERG): 13.2%
COc1c(N2C[C@@H]3CCCN[C@@H]3C2)c(F)cc2c(=O)c(C(=O)O)cn(C3CC3)c12 [Moxifloxacin]	10000 nM					Arrest (%) ([1]; 100 µM): 0%; Fib-like (%) ([1]; 100 µM): 0%
Fc1ccc([C@@H]2CCNC[C@H]2COc2ccc3c(c2)OCO3)cc1 [Paroxetin]	70 nM		High			FPD (ratio) ([4]; hCM clusters): 1.30 ± 0.06 ratio; STVFPD (ratio) ([4]; hCM clusters): 2.27 ± 0.41 ratio; Arrest (%) [4, 7]: 13%; Fib-like (%) [4, 7]: 0%
CC(C)(C)c1ccc(C(O)CCCN2CCC(C(O)(c3ccccc3)c3ccccc3)CC2)cc1 (centres unmarked) [Terfenadine]	220 nM	(+)	High	21%	3%	STVFPD in hCM clusters, long-term observation ([4]; 0.3 μM, even at 72 h): no significant increase; time at which FPD reached the risk level ([4]; 0.3 μM, hCM clusters, long-term observation): 24 h; FPD in hCM clusters, long-term observation ([4]; 0.3 μM, observed 8 h after application): gradual increase
CSc1ccc2c(c1)N(CCC1CCCCN1C)c1ccccc1S2 (centres unmarked) [Thioridazine]	1800 nM	(+)	High	0%	0%	
